Source: patent US10047051B2, “Substituted pyridines and method of use” (AbbVie S.á{acute over (.)}r.l., priority 2015, dated 2018)

Tests used:
[1] = biological target: T1, CFTR G551D mutant (Homo sapiens, UniProt P13569, G551D); assay: YFP-halide influx assay for the CFTR-G551D mutation (HEK293 cells); type: cell-based; conditions: forskolin 10.67 μM
T1 construct: expressed in transfected cells; host or cells: HEK293 cells, reverse transfection with plasmids
In short: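 HEK293 cells reverse-transfected with CFTR G551D and halide-sensitive YFP (H148Q/I152L/F47L), expressed 24 h at 37 °C. YFP fluorescence quenching recorded for 7 s after I⁻ injection. Response = 1−F/F0; EC50 derived from 1−F/F0 vs compound concentration.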

[2] = biological target: T2, CFTR ΔF508 mutant (Homo sapiens, UniProt P13569, DEL508-508); assay: YFP-halide influx assay for the CFTR-ΔF508 mutation (CFBE41o- cells); type: cell-based; conditions: forskolin 10.67 μM; for EC50: from (1−F/F0) vs concentration plot
T2 construct: expressed in transfected cells; host or cells: CFBE41o- cells, adenoviral transduction
T2 sequence (P13569 with tags, fused parts or gaps DEL508-508): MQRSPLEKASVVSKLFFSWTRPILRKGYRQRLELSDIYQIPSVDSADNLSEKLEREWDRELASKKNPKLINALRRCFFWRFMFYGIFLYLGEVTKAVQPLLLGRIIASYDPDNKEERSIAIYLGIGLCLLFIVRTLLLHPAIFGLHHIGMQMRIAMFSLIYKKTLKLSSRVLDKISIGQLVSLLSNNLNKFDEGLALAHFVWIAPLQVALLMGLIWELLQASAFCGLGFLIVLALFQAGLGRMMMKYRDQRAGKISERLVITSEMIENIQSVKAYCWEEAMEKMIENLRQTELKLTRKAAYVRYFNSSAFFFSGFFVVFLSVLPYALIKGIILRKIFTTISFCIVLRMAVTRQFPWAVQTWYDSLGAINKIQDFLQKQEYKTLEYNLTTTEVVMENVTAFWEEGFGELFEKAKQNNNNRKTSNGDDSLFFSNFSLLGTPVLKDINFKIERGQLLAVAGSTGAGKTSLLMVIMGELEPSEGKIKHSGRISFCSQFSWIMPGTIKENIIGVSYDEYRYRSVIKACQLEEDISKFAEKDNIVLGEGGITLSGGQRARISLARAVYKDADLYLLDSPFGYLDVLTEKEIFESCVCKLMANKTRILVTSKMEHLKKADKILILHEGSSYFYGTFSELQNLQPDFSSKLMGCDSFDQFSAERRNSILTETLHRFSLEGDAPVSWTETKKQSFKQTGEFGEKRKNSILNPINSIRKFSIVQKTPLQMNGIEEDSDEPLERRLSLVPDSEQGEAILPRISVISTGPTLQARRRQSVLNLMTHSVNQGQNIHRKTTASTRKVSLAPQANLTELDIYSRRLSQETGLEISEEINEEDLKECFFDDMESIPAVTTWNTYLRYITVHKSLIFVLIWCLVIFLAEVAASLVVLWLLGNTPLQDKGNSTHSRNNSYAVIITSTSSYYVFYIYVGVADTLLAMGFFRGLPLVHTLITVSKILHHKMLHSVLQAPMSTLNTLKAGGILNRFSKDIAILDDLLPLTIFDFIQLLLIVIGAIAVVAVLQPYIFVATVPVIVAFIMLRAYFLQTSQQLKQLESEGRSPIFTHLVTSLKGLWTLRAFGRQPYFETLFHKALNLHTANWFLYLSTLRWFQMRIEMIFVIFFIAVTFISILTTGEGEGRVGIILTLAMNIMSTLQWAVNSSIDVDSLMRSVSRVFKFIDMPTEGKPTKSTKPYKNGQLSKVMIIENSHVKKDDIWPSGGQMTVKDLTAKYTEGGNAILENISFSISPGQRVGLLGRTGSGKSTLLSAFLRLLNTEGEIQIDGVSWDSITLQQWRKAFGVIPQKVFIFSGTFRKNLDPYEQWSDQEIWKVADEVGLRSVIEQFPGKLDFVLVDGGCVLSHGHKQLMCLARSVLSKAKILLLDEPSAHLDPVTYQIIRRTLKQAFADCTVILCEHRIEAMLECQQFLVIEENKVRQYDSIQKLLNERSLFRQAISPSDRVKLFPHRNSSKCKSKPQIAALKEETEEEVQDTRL
In short: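 CFBE41o- cells transduced with adenovirus expressing CFTR ΔF508 and halide-sensitive YFP H148Q/I152L/F47L, then held 24 h at 27° C or with a CFTR modulator 24 h at 37° C. Iodide-induced quench recorded 2 min; EC50 from (1−F/F0) at 36 s versus concentration.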

T1 sequence (P13569 whole entry G551D): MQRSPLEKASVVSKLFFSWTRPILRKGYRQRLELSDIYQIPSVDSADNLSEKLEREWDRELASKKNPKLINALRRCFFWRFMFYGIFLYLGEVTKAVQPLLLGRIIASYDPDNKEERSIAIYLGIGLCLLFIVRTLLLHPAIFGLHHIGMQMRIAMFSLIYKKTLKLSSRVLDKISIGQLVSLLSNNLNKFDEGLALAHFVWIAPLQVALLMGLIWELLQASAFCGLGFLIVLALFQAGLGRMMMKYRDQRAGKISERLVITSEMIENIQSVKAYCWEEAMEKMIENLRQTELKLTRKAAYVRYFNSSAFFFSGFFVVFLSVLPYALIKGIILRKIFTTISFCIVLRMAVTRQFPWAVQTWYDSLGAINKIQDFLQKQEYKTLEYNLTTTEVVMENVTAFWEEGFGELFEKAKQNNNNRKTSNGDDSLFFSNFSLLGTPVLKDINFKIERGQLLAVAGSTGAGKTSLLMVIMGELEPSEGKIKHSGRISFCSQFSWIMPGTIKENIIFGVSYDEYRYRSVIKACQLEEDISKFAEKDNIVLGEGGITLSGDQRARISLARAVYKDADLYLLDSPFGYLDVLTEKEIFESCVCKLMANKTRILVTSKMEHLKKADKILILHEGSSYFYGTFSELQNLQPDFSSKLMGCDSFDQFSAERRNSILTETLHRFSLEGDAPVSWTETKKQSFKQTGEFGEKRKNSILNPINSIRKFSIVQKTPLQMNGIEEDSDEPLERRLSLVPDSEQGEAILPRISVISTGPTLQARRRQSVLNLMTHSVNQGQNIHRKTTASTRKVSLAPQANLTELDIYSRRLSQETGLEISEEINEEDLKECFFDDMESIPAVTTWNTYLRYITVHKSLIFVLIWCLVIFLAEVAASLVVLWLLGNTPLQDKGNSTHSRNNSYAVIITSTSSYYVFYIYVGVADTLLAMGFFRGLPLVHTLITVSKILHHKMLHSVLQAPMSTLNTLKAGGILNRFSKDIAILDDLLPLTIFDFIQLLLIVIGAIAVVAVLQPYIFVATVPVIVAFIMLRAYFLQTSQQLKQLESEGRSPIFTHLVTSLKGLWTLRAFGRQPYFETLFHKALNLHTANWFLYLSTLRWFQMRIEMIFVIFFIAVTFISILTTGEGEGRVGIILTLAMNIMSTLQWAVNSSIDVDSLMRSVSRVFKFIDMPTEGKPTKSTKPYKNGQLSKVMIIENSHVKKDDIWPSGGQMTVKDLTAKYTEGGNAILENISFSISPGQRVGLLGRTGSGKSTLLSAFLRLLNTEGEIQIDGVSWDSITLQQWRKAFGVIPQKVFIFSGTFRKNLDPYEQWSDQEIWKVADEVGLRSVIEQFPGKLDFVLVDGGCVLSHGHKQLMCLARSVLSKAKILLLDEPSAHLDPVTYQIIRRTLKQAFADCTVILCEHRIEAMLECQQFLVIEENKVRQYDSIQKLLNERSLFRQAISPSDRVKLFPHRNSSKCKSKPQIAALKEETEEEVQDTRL

C[C@H](O)CNC(=O)c1nc(-c2ccc(F)cc2)c(S(=O)(=O)CCO)cc1N [Compound 262, 3-amino-6-(4-fluorophenyl)-5-[(2-hydroxyethyl)sulfonyl]-N-[(2S)-2-hydroxypropyl]pyridine-2-carboxamide]
% Activation [1]: 5.5%
EC50 [1]: > 1000 nM
% Activation [2]: 8.9%
EC50 [2]: > 1000 nM

CCS(=O)(=O)c1cc(N)c(C(=O)NC[C@H](C)O)nc1-c1ccc(F)cc1 [Compound 263, 3-amino-5-(ethylsulfonyl)-6-(4-fluorophenyl)-N-[(2S)-2-hydroxypropyl]pyridine-2-carboxamide]
% Activation [1]: 5.99%
EC50 [1]: 2000 nM
% Activation [2]: 97.2%
EC50 [2]: 142 nM

CC(C)S(=O)(=O)c1cc(N)c(C(=O)NC[C@H](C)O)nc1-c1ccc(F)cc1 [Compound 264, 3-amino-6-(4-fluorophenyl)-N-[(2S)-2-hydroxypropyl]-5-(propan-2-ylsulfonyl)pyridine-2-carboxamide]
% Activation [1]: 6.51%
EC50 [1]: 2000 nM
% Activation [2]: 76.0%
EC50 [2]: 213 nM

COCCS(=O)(=O)c1cc(N)c(C(=O)NC[C@H](C)O)nc1-c1ccc(F)cc1 [Compound 265, 3-amino-6-(4-fluorophenyl)-N-[(2S)-2-hydroxypropyl]-5-[(2-methoxyethyl)sulfonyl]pyridine-2-carboxamide]
% Activation [1]: 11.24%
EC50 [1]: 2000 nM
% Activation [2]: 92.4%
EC50 [2]: 141 nM

C[C@H](O)CNC(=O)c1ncc(S(=O)(=O)N2CCC[C@@H]2C)cc1N [Compound 266, 3-amino-N-[(2S)-2-hydroxypropyl]-5-{[(2S)-2-methylpyrrolidin-1-yl]sulfonyl}pyridine-2-carboxamide]
% Activation [1]: 21.9%
EC50 [1]: > 10000 nM
% Activation [2]: 105.0%
EC50 [2]: 180 nM

C[C@H](O)CNC(=O)c1ncc(S(=O)(=O)NCc2ccc(F)cc2)cc1N [Compound 267, 3-amino-5-[(4-fluorobenzyl)sulfamoyl]-N-[(2S)-2-hydroxypropyl]pyridine-2-carboxamide]
% Activation [1]: 0.9%
EC50 [1]: > 10000 nM
% Activation [2]: 59.3%
EC50 [2]: > 667 nM

C[C@H](O)CNC(=O)c1ncc(S(=O)(=O)N(C)Cc2ccc(F)cc2)cc1N [Compound 269, 3-amino-5-[(4-fluorobenzyl)(methyl)sulfamoyl]-N-[(2S)-2-hydroxypropyl]pyridine-2-carboxamide]
% Activation [1]: 44.8%
EC50 [1]: 1310 nM
% Activation [2]: 107.0%
EC50 [2]: 7.8 nM

CC(C)NC(=O)CNC(=O)c1ncc(S(=O)(=O)N2CCC[C@@H]2C)cc1N [Compound 270, 3-amino-5-{[(2S)-2-methylpyrrolidin-1-yl]sulfonyl}-N-[2-oxo-2-(propan-2-ylamino)ethyl]pyridine-2-carboxamide]
% Activation [1]: 23.8%
EC50 [1]: > 10000 nM
% Activation [2]: 100.0%
EC50 [2]: 143 nM

C[C@H]1CCCN1S(=O)(=O)c1cnc(C(=O)N2CC(C(N)=O)C2)c(N)c1 [Compound 271, 1-[(3-amino-5-{[(2S)-2-methylpyrrolidin-1-yl]sulfonyl}pyridin-2-yl)carbonyl]azetidine-3-carboxamide]
% Activation [1]: 2.5%
EC50 [1]: > 10000 nM
% Activation [2]: 20.4%
EC50 [2]: > 2000 nM

C[C@H]1CCCN1S(=O)(=O)c1cnc(C(=O)N2CC(O)C2)c(N)c1 [Compound 272, (3-amino-5-{[(2S)-2-methylpyrrolidin-1-yl]sulfonyl}pyridin-2-yl) (3-hydroxyazetidin-1-yl)methanone]
% Activation [1]: 2.8%
EC50 [1]: > 5000 nM
% Activation [2]: 82.0%
EC50 [2]: > 334 nM

Nc1cc(S(=O)(=O)c2ccc(OC(F)(F)F)cc2)cnc1C(=O)NCC(O)CF (stereo not drawn) [Compound 273, 3-amino-N-(3-fluoro-2-hydroxypropyl)-5-{[4-(trifluoromethoxy)phenyl]sulfonyl}pyridine-2-carboxamide]
% Activation [1]: 39.5%
EC50 [1]: 1010 nM
% Activation [2]: 112.0%
EC50 [2]: 10.3 nM

C[C@H](O)CNC(=O)c1nc(C2CC2)c(S(=O)(=O)c2ccc(F)cc2)cc1N [Compound 274, 3-amino-6-cyclopropyl-5-[(4-fluorophenyl)sulfonyl]-N-[(2S)-2-hydroxypropyl]pyridine-2-carboxamide]
% Activation [1]: 69.5%
EC50 [1]: > 3330 nM
% Activation [2]: 111.0%
EC50 [2]: 6.9 nM

CCS(=O)(=O)c1cc(N)c(C(=O)NC[C@H](C)O)nc1C1CC1 [Compound 275, 3-amino-6-cyclopropyl-5-(ethylsulfonyl)-N-[(2S)-2-hydroxypropyl]pyridine-2-carboxamide]
% Activation [1]: 4.2%
EC50 [1]: > 10000 nM
% Activation [2]: 68.5%
EC50 [2]: > 667 nM

COCC(O)CNC(=O)c1ncc(S(=O)(=O)N2CCC[C@@H]2C)cc1N (stereo partly drawn) [Compound 276, 3-amino-N-(2-hydroxy-3-methoxypropyl)-5-{[(2S)-2-methylpyrrolidin-1-yl]sulfonyl}pyridine-2-carboxamide]
% Activation [1]: 13.7%
EC50 [1]: > 10000 nM
% Activation [2]: 108.0%
EC50 [2]: 109 nM

COCCN(C)S(=O)(=O)c1cnc(C(=O)NC[C@H](C)O)c(N)c1 [Compound 277, 3-amino-N-[(2S)-2-hydroxypropyl]-5-[(2-methoxyethyl)(methyl)sulfamoyl]pyridine-2-carboxamide]
% Activation [1]: 0.8%
EC50 [1]: > 10000 nM
% Activation [2]: 65.5%
EC50 [2]: > 667 nM

C[C@H](O)CNC(=O)c1ncc(S(=O)(=O)N(C)C2CCC2)cc1N [Compound 278, 3-amino-5-[cyclobutyl(methyl)sulfamoyl]-N-[(2S)-2-hydroxypropyl]pyridine-2-carboxamide]
% Activation [1]: 21.3%
EC50 [1]: > 10000 nM
% Activation [2]: 105.0%
EC50 [2]: 44.1 nM

Nc1cc(S(=O)(=O)c2ccc(OC(F)(F)F)cc2)cnc1C(=O)NCC(O)C(F)F (stereo not drawn) [Compound 279, 3-amino-N-(3,3-difluoro-2-hydroxypropyl)-5-{[4-(trifluoromethoxy)phenyl]sulfonyl}pyridine-2-carboxamide]
% Activation [1]: 57.2%
EC50 [1]: 662 nM
% Activation [2]: 113.0%
EC50 [2]: 1.7 nM

COc1nc(C(=O)NC[C@H](C)O)c(N)cc1S(=O)(=O)c1ccc(OC(F)(F)F)cc1 [Compound 280, 3-amino-N-[(2S)-2-hydroxypropyl]-6-methoxy-5-{[4-(trifluoromethoxy)phenyl]sulfonyl}pyridine-2-carboxamide]
% Activation [1]: 57.6%
EC50 [1]: 1160 nM
% Activation [2]: 111.0%
EC50 [2]: 2.9 nM

COc1ccnc(CNC(=O)c2ncc(S(=O)(=O)N3CCC[C@@H]3C)cc2N)n1 [Compound 281, 3-amino-N-[(4-methoxypyrimidin-2-yl)methyl]-5-{[(2S)-2-methylpyrrolidin-1-yl]sulfonyl}pyridine-2-carboxamide]
% Activation [1]: 50.0%
EC50 [1]: > 3330 nM
% Activation [2]: 89.4%
EC50 [2]: 167 nM

C[C@H]1CCCN1S(=O)(=O)c1cnc(C(=O)NCc2nccc(=O)[nH]2)c(N)c1 [Compound 282, 3-amino-5-{[(2S)-2-methylpyrrolidin-1-yl]sulfonyl}-N-[(6-oxo-1,6-dihydropyrimidin-2-yl)methyl]pyridine-2-carboxamide]
% Activation [1]: 1.8%
EC50 [1]: > 10000 nM
% Activation [2]: 47.0%
EC50 [2]: > 667 nM

C[C@H](O)CNC(=O)c1nc(N(C)C)c(S(=O)(=O)c2ccc(OC(F)(F)F)cc2)cc1N [Compound 283, 3-amino-6-(dimethylamino)-N-[(2S)-2-hydroxypropyl]-5-{[4-(trifluoromethoxy)phenyl]sulfonyl}pyridine-2-carboxamide]
% Activation [1]: 96.5%
EC50 [1]: 2620 nM
% Activation [2]: 93.3%
EC50 [2]: 5.1 nM

C[C@H](O)CNC(=O)c1nc(Oc2cccc(F)c2)c(S(=O)(=O)c2ccc(OC(F)(F)F)cc2)cc1N [Compound 284, 3-amino-6-(3-fluorophenoxy)-N-[(2S)-2-hydroxypropyl]-5-{[4-(trifluoromethoxy)phenyl]sulfonyl}pyridine-2-carboxamide]
% Activation [1]: 67.0%
EC50 [1]: 1620 nM
% Activation [2]: 95.1%
EC50 [2]: 6.3 nM

C[C@H](O)CNC(=O)c1nc(NC2CC2)c(S(=O)(=O)c2ccc(OC(F)(F)F)cc2)cc1N [Compound 285, 3-amino-6-(cyclopropylamino)-N-[(2S)-2-hydroxypropyl]-5-{[4-(trifluoromethoxy)phenyl]sulfonyl}pyridine-2-carboxamide]
% Activation [1]: 52.5%
EC50 [1]: 776 nM
% Activation [2]: 86.7%
EC50 [2]: 4.2 nM

COCC(=O)NNC(=O)c1ncc(S(=O)(=O)c2ccc(OC(F)(F)F)cc2)cc1N [Compound 286, 3-amino-N′-(methoxyacetyl)-5-{[4-(trifluoromethoxy)phenyl]sulfonyl}pyridine-2-carbohydrazide]
% Activation [1]: 26.8%
% Activation [2]: 79.7%
EC50 [2]: 88.1 nM

Nc1cc(S(=O)(=O)c2ccc(OC(F)(F)F)cc2)cnc1C(=O)NNC(=O)CO [Compound 287, 3-amino-N′-(hydroxyacetyl)-5-{[4-(trifluoromethoxy)phenyl]sulfonyl}pyridine-2-carbohydrazide]
% Activation [1]: 24.3%
% Activation [2]: 83.4%
EC50 [2]: 256 nM

COCCOc1nc(C(=O)NC[C@H](C)O)c(N)cc1S(=O)(=O)c1ccc(OC(F)(F)F)cc1 [Compound 288, 3-amino-N-[(2S)-2-hydroxypropyl]-6-(2-methoxyethoxy)-5-{[4-(trifluoromethoxy)phenyl]sulfonyl}pyridine-2-carboxamide]
% Activation [1]: 78.3%
EC50 [1]: > 3330 nM
% Activation [2]: 109.0%
EC50 [2]: 8.7 nM
